Measurements taken from patent US20110098296A1, “Thiazole And Oxazole Kinase Inhibitors” (priority 2007, published 2011).

Legend:
[1] = test system: HN5 tumor cells; experiment: Method A: Methylene Blue Growth Inhibition Assay, HN5; type: cell-based; conditions: Homo sapiens, 72 h, 3 days
Procedure: (§1) Human breast (BT474) and head and neck (HN5) tumor cells were cultured in low glucose DMEM (Life Technologies 12320-032) containing 10% fetal bovine serum (FBS). Human colon tumor cells (Colo205) were cultured in DMEM (Invitrogen, 10564) containing 10% FBS. The SV40 transformed human mammary epithelial cell line HB4a was transfected with either human H-ras cDNA (HB4a r4.2) or the human c-ErbB2 cDNA (HB4a c5.2). The HB4a clones were cultured in RPMI containing 10% FBS, insulin (5 g/mL), hydrocortisone (5 g/mL), supplemented with the selection agent hygromycin B (50 g/mL). All lines were grown in a humidified incubator at 37° C. in 95% air, 5% CO2. Cells were harvested using trypsin/EDTA, counted using a haemocytometer, and plated in 100 μL of the appropriate media, at the following densities, in a 96-well tissue culture plate (Falcon 3075): BT474 10,000 cells/well, HN5 3,000 cells/well. The next day, compounds were diluted in DMEM containing […] gentamicin, at twice the final required concentration, from 10 mM stock solutions in DMSO. 100 μl/well of these dilutions were added to the 100 μL of media currently on the cell plates. Medium containing 0.6% DMSO was added to control wells. Compounds diluted in DMEM were added to all cell lines. The final concentration of DMSO in all wells was 0.3%. Cells were returned to the incubator (37° C., […]) for 3 days. Medium was then removed by aspiration. Cell biomass was estimated by staining cells with 90 μL/well methylene blue (Sigma M9140, 0.5% in 1:1 EtOH:H2O), and incubation at room temperature for at least 30 minutes. Stain was removed, and the plates rinsed by immersion in deionized H2O and air-dried. To release stain from the cells 100 μL of solubilization solution were added (1% N-lauroyl sarcosine, sodium salt, Sigma L5125, in PBS), and plates were shaken gently for about 30 minutes. Optical density at 620 nm was measured on a microplate reader. Percent inhibition of cell growth was calculated relative to vehicle-treated control wells. Concentration of compound that inhibits 50% of control cell growth (IC50) was interpolated using nonlinear regression (Levenberg-Marquardt) and the equation,
(§2) y=Vmax*(1−(x/(K+x)))+Y2, where “K” was equal to the IC50.

[2] = test system: Colo205 tumor cells; experiment: Method A: Methylene Blue Growth Inhibition Assay, Colo205; type: cell-based; conditions: Homo sapiens, COLO 205, 72 h, 3 days
Procedure: as §1, §2

[3] = test system: BT474 tumor cells; experiment: Method A: Methylene Blue Growth Inhibition Assay, BT474; type: cell-based; conditions: Homo sapiens, BT-474, 72 h, 3 days
Procedure: as §1, §2

[4] = molecular target: B-Raf (Homo sapiens, UniProt P15056); experiment: B-Raf Accelerated MEK ATPase assay (BRAMA); type: biochemical; conditions: Method (A): BRAMA, kinetic read
Sequence of B-Raf (P15056 whole entry): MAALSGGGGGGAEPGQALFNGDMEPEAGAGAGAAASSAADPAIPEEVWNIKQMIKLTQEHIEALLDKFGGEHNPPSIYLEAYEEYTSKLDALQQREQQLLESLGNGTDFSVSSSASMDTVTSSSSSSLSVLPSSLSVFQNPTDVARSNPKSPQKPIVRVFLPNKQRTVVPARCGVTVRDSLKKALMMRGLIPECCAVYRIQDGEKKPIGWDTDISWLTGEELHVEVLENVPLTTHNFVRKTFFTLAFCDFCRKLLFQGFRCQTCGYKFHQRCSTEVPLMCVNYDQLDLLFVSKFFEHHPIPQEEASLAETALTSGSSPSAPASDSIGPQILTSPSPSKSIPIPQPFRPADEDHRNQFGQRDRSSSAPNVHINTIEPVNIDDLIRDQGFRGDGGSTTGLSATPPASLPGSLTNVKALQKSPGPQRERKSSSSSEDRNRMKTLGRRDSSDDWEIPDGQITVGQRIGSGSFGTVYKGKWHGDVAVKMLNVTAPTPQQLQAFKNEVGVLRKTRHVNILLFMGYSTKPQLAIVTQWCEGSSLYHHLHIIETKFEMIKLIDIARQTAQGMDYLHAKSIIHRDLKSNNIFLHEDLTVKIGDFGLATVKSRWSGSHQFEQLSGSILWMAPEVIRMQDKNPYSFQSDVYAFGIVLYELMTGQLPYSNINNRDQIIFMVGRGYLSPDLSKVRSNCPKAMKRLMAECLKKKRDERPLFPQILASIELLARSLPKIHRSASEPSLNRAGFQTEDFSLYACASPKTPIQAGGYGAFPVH
Procedure: Compounds of the present invention were tested for B-Raf protein serine kinase inhibitory activity in a B-Raf Accelerated MEK ATPase assay (BRAMA). The BRAMA assay is a high sensitivity assay which measures an intrinsic MEK-mediated ATP hydrolysis uncoupled from downstream ERK phosphorylation by coupling the formation of ADP to NADH oxidation through the enzymes pyruvate kinase and lactate dehydrogenase. When ADP production is initiated by addition of catalytic amounts of an activated Raf enzyme and non-phosphorylated MEK, one observes robust ADP production concomitant with Raf-mediated phosphorylation of MEK.
Method A: Specific details of the assay are disclosed in: C. Rominger, M. Schaber, E. May. Assay for B-Raf Activity Based on Intrinsic MEK ATPase Activity. Statutory Invention Registration Ser. No. 11/084,993 (March, 2005). Method B: The method is the same as method A, but includes the following changes: 1) the assay was performed with a final MEK concentration of 150 nM and 2) the assay was read as single end point instead of a kinetic read.

[5] = molecular target: T1, ErbB2 (Homo sapiens, UniProt P04626); experiment: ErbB-2 substrate phosphorylation assay (HTRF); type: biochemical; conditions: Method (A): Enzyme Mix incubated with compound at 20° C. for 1 hr, reaction started by adding Substrate Mix
T1 construct: made in house; host or cells: baculovirus expression system
T1 sequence (P04626 23-1255): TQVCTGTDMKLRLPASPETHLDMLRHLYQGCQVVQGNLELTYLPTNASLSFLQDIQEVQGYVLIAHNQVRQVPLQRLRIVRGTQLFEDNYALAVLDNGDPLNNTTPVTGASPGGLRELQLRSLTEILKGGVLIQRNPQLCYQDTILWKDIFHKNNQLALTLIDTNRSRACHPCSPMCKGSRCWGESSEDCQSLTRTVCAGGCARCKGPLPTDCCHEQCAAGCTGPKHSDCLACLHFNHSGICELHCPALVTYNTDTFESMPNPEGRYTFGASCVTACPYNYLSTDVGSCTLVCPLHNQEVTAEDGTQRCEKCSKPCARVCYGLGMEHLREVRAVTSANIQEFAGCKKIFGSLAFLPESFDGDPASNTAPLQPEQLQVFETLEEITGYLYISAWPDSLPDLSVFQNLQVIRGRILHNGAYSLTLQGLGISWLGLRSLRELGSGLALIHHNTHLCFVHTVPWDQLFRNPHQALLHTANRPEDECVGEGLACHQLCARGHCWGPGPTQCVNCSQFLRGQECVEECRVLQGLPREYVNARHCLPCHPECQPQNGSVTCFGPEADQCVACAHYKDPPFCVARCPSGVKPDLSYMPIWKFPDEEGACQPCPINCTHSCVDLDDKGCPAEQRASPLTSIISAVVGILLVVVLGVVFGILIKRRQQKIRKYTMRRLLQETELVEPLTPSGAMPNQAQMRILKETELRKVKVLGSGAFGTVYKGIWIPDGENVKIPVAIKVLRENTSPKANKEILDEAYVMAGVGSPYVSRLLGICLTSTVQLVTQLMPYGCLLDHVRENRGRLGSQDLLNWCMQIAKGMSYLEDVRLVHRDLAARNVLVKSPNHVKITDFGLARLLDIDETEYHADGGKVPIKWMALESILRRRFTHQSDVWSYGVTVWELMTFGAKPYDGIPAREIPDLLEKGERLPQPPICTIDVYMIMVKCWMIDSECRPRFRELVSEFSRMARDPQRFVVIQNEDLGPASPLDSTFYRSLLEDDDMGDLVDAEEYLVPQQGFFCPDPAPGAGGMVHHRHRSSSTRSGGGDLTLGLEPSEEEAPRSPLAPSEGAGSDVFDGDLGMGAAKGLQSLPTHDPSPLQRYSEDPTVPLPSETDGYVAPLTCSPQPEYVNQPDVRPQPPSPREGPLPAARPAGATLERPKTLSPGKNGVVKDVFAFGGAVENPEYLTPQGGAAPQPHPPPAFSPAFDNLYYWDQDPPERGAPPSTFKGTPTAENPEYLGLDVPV
How it was run: (§3)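 Baculovirus-expressed kinase (0.8 nM EGFR or 10 nM ErbB2 in enzyme mix) with Peptide C 0.8 μM and ATP 20 μM (substrate-mix levels), MOPS pH 7.5, MnCl2; 90 min, 20 °C, HTRF anti-phosphotyrosine. Method A adds 1 h enzyme–compound preincubation; B none. pIC50, final compound 0.00027–47.6 μM.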

[6] = molecular target: T2, EGFR (Homo sapiens, UniProt P00533); experiment: EGFR substrate phosphorylation assay (HTRF); type: biochemical; conditions: Method (A): Enzyme Mix incubated with compound at 20° C. for 1 hr, reaction started by adding Substrate Mix
T2 construct: made in house; host or cells: baculovirus expression system
T2 sequence (P00533 25-1210): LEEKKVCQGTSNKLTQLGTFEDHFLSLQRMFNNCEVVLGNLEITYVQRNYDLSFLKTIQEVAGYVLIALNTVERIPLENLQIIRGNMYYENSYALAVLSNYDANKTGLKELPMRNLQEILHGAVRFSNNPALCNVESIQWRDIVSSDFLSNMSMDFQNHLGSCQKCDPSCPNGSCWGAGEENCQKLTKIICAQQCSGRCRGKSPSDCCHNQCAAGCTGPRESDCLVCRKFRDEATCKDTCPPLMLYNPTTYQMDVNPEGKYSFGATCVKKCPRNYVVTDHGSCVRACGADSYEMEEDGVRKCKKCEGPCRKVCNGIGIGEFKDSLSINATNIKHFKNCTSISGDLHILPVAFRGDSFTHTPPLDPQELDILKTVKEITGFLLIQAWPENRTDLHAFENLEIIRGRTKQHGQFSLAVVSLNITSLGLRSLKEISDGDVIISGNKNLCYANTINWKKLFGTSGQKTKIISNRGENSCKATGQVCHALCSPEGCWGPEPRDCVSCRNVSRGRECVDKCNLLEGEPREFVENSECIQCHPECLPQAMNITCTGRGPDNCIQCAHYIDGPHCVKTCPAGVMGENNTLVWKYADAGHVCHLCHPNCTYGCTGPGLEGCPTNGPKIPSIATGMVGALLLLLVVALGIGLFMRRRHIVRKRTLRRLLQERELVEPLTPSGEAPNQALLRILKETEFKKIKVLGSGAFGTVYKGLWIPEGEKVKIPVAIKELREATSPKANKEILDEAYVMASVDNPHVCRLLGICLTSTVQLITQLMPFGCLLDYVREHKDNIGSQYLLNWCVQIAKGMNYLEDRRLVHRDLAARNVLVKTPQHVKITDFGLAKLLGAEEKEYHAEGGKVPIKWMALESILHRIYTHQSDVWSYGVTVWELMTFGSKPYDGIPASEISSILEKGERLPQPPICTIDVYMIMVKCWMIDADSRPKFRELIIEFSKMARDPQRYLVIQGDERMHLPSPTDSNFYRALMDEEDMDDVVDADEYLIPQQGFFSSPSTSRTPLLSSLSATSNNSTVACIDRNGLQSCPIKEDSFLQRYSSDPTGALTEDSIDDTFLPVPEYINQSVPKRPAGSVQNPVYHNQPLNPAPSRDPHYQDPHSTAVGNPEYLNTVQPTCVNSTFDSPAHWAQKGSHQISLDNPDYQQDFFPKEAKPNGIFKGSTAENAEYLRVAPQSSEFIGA
How it was run: as §3

[7] = test system: SK-MEL-28 tumor cells; experiment: Method C: Cell Growth Inhibition Assay (CellTiter-Glo), SK-MEL-28; type: cell-based; conditions: Homo sapiens, SK-MEL-28, 72 h, 3 days, 4-parameter fit
How it was run: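 500 cells/well; next-day compound, 1:3 serial dilutions, 0.2% DMSO final; 3 d, 37° C, 5% CO2. Readout: CellTiter-Glo luminescence (total ATP as cell-number surrogate). IC50 from 4-parameter fit of % growth inhibition vs vehicle.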

[8] = test system: Colo205 tumor cells; experiment: Method C: Cell Growth Inhibition Assay (CellTiter-Glo), Colo205; type: cell-based; conditions: Homo sapiens, COLO 205, 72 h, 3 days, 4-parameter fit
How it was run: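 Plating at 500 cells/well is followed the next day by addition of compound as a 1:3 serial dilution series. After 3 days' incubation, CellTiter-Glo luminescence is read and IC50 is calculated versus DMSO wells.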

[9] = test system: HN5 tumor cells; experiment: Method B: CellTiter-Glo Growth Inhibition Assay, HN5; type: cell-based; conditions: Homo sapiens, 72 h, 3 days
Procedure: (§4) Human breast tumor cells (BT474) were cultured in RPMI, (Invitrogen, 22400) containing 10% fetal bovine serum (FBS). Human head and neck tumor cells (HN5) were cultured in low glucose DMEM (Invitrogen, 12320) containing 10% FBS. Human colon tumor cells (Colo205) were cultured in DMEM (Invitrogen, 10564) containing 10% FBS. Human melanoma cancer cells (SK-MEL-28) were incubated in DMEM (Invitrogen). All cell lines were maintained at 37° C. in a humidified 5% CO2, 95% air incubator. Cells were harvested using trypsin/EDTA, counted using a haemocytometer, and plated in 30 μL of the appropriate media described above, at the following densities, in a half-area, black-walled, 96-well tissue culture plate (Corning 3882): BT474 3,000 cells/well, HN5 500 cells/well, Colo205 3,000 cells/well, and SK-MEL-28 500 cells/well). The next day, compounds were diluted in DMEM containing […] gentamicin, from 10 mM stock solutions in DMSO. 30 μL/well of these dilutions were added to the 30 μL/well of media currently on the cell plates. Medium containing 0.6% DMSO was added to control wells. The final concentration of DMSO in all wells was 0.3%. Cells were incubated at 37° C., 5% CO2 for 3 days. Cell biomass was estimated using CellTiter-Glo® reagent (Promega G7571). Briefly, plates were removed from the incubator and allowed to equilibrate to rt for 30 minutes. 25-60 μL of CellTiter-Glo® reagent were added to each well of the treated cells and plates were shaken on an orbital plate shaker for 2 mins. Plates were incubated without shaking for 30 more mins and read in a luminometer with an integration time of 0.5 seconds per well. Percent inhibition of cell growth was calculated relative to vehicle-treated control wells. Concentration of compound that inhibits 50% of vehicle control cell growth (IC50) was interpolated using nonlinear regression (Levenberg-Marquardt) and the equation, y=V max*(1−(x/(K+x)))+Y2, where “K” was equal to the IC50.

[10] = test system: Colo205 tumor cells; experiment: Method B: CellTiter-Glo Growth Inhibition Assay, Colo205; type: cell-based; conditions: Homo sapiens, COLO 205, 72 h, 3 days
Procedure: as §4

[11] = test system: BT474 tumor cells; experiment: Method B: CellTiter-Glo Growth Inhibition Assay, BT474; type: cell-based; conditions: Homo sapiens, BT-474, 72 h, 3 days
Procedure: as §4

SMILES | IC50 [1] [µM] | IC50 [2] [µM] | IC50 [3] [µM] | IC50 [4] [µM] | IC50 [5] [µM] | IC50 [6] [µM] | IC50 [7] [µM] | IC50 [8] [µM] | IC50 [9] [µM] | IC50 [10] [µM] | IC50 [11] [µM]
Nc1nc(-c2cccc(OCc3ccccc3)c2)c(-c2ccnc(Nc3cccc(-c4cnco4)c3)n2)s1 [Example 69, 4-(2-Amino-4-{3-[(phenylmethyl)oxy]phenyl}-1,3-thiazol-5-yl)-N-[3-(1,3-oxazol-5-yl)phenyl]-2-pyrimidinamine] | 0.1 to 1 | > 1 | 0.1 to 1 | > 1 | < 0.1 | < 0.1 |  |  |  |  | 
Cc1cc(Nc2nccc(-c3sc(N(C)C)nc3-c3cccc(NC(=O)c4c(F)cccc4F)c3)n2)ccc1CC1CCNCC1 [Example 42, N-{3-[2-(Dimethylamino)-5-(2-{[3-methyl-4-(4-piperidinylmethyl)phenyl]amino}-4-pyrimidinyl)-1,3-thiazol-4-yl]phenyl}-2,6-difluorobenzamide] |  |  |  | 0.1 to 1 | < 0.1 | < 0.1 | > 1 | > 1 |  |  | 
Cc1cc(-c2sc(N)nc2-c2cccc(NC(=O)c3c(F)cccc3F)c2)nc(Nc2cccc(OCCN(C)C)c2)n1 [Example 49, N-[3-(2-Amino-5-{2-[(3-{[2-(dimethylamino)ethyl]oxy}phenyl)amino]-6-methyl-4-pyrimidinyl}-1,3-thiazol-4-yl)phenyl]-2,6-difluorobenzamide] |  |  |  | > 1 | 0.1 to 1 | < 0.1 |  |  | 0.1 to 1 | > 1 | 0.1 to 1
COCCOc1ccc(Nc2nccc(-c3sc(N)nc3-c3cccc(NC(=O)c4cccn4C)c3)n2)cc1F [Example 66, N-[3-(2-Amino-5-{2-[(3-fluoro-4-{[2-(methyloxy)ethyl]oxy}phenyl)amino]-4-pyrimidinyl}-1,3-thiazol-4-yl)phenyl]-1-methyl-1H-pyrrole-2-carboxamide] | < 0.1 | 0.1 to 1 | < 0.1 | > 1 | < 0.1 | < 0.1 |  |  |  |  | 
